The values that follow come from PMC7048748, “Anxiolytic Drug FGIN-1-27 Ameliorates Autoimmunity by Metabolic Reprogramming of Pathogenic Th17 Cells” (Scientific Reports, 2020).

The test system of this experiment is Th17 cells. Nature of the experiment: Intracellular metabolites by CE-MS. The experiment is classed as cell-based, mouse. The method, then: CD4 T cells were differentiated under Th17 polarization conditions and were either treated with DMSO (control) or FGIN-1-27. The error bars represent SD. (a) Genomic browser screenshots of IL-17a, IL-17f and Rorc loci depicting normalized RNA-seq read coverage (RPM) in Th17 cells treated with DMSO or FGIN-1-27 for 24 hours. […] (c) Heat map showing differentially expressed genes encoding glycolytic enzymes in Th17 cells treated with DMSO or FGIN-1-27 for 24 hours (d) Glycolytic metabolites measured in Th17 cells treated with DMSO or FGIN-1-27 for 72 hours. (e) Metabolites in the TCA cycle were measured in Th17 cells treated with DMSO or FGIN-1-27 for 72 hours.
8 million cells treated with either DMSO or FGIN-1-27 were used for extraction of intracellular metabolites. The cells were washed twice with 5% mannitol and treated with methanol to inactivate the enzymes. Next, the cell extract was treated with Milli-Q water containing internal standards (H3304-1002, Human Metabolome Technologies, inc., Tsuruoka, Japan) and left at rest for another 30 s. The extract was obtained and centrifuged at 2,300 ×g and 4 °C for 5 min and then 800 µL of upper aqueous layer was centrifugally filtered through a Millipore 5-kDa cutoff filter at 9,100 ×g and 4 °C for 120 min to remove proteins. The filtrate was centrifugally concentrated and re-suspended in 50 µL of Milli-Q water for CE-MS analysis. Cationic compounds were measured in the positive mode of CE-TOFMS and anionic compounds were measured in the positive and negative modes of CE-MS/MS according to the methods developed by Soga, et al.[39],[40]. Peaks detected by CE-TOFMS and CE-MS/MS were extracted using automatic integration software (MasterHands, Keio University, Tsuruoka, Japan and MassHunter Quantitative Analysis B.04.00, Agilent Technologies, Santa Clara, CA, USA, respectively) in order to obtain peak information including m/z, migration time (MT), and peak area. The peaks were annotated with putative metabolites from the HMT metabolite database based on their MTs in CE and m/z values determined by TOFMS. The tolerance range for the peak annotation was configured at ±0.5 min for MT and ±10 ppm for m/z. In addition, concentrations of metabolites were calculated by normalizing the peak area of each metabolite with respect to the area of the internal standard and by using standard curves, which were obtained by three-point calibrations. Hierarchical cluster analysis (HCA) and principal component analysis (PCA) were performed by Human Metabolome proprietary software, PeakStat and SampleStat, respectively. Detected metabolites were plotted on metabolic pathway maps using VANTED (Visualization and Analysis of Networks containing Experimental Data) software.

In the case of `CCCCCCN(CCCCCC)C(=O)Cc1c(-c2ccc(F)cc2)[nH]c2ccccc12` [FGIN-1-27, N, N-di-n-hexyl 2-(4-fluorophenyl) indole-3-acetamide], under “72 hours”, the “TCA cycle intermediates (citric acid, cis-aconitic acid, 2-hydroxyglutaric acid, malic acid)” value was “additionally reduced”; the lactate result is recorded as “unchanged levels”; the pyruvate entry is recorded as “lower levels”. The amino acids result (72 hours post compound treatment) is listed as “significant increase”. Also, the “upper glycolytic intermediates (F6P, F1,6P, 3-PG, 2-PG)” value (72 hours, vs DMSO) is “substantially reduced”.
